According to PubChem BioAssay (NCI):
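Growth conditions: 96-well plates. Treatment: test compound, 48 hours, 5 concentrations. Analysis: linear interpolation between bracketing concentrations; unreached endpoints set to highest concentration. Abbreviation: GI50, concentration required for 50% inhibition of growth. The concentration for full growth arrest is given as TGI.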

Tests used:
Assay in all cases: NCI tumour cell line growth inhibition, 48 h
SNB-19 CNS = system: SNB-19 CNS
A498 renal = system: A498 renal
HOP-62 NSCLC = system: HOP-62 NSCLC
CAKI-1 renal = system: CAKI-1 renal
U251 CNS = system: U251 CNS
UACC-62 melanoma = system: UACC-62 melanoma
MOLT-4 leukemia = system: MOLT-4 leukemia
TK-10 renal = system: TK-10 renal
SK-MEL-2 melanoma = system: SK-MEL-2 melanoma
EKVX NSCLC = system: EKVX NSCLC
PC-3 prostate = system: PC-3 prostate
NCI/ADR-RES ovarian = system: NCI/ADR-RES ovarian
SK-OV-3 ovarian = system: SK-OV-3 ovarian
786-0 renal = system: 786-0 renal
COLO 205 colon = system: COLO 205 colon
OVCAR-3 ovarian = system: OVCAR-3 ovarian
SR leukemia = system: SR leukemia
HCT-15 colon = system: HCT-15 colon
KM12 colon = system: KM12 colon
RXF 393 renal = system: RXF 393 renal
OVCAR-8 ovarian = system: OVCAR-8 ovarian
MDA-MB-231 breast = system: MDA-MB-231 breast
K-562 leukemia = system: K-562 leukemia
CCRF-CEM leukemia = system: CCRF-CEM leukemia
M14 melanoma = system: M14 melanoma
MDA-MB-435 = system: MDA-MB-435
SF-295 CNS = system: SF-295 CNS
MCF7 breast = system: MCF7 breast
HCT-116 colon = system: HCT-116 colon
LOX IMVI melanoma = system: LOX IMVI melanoma
UO-31 renal = system: UO-31 renal
NCI-H460 lung = system: NCI-H460 lung
OVCAR-4 ovarian = system: OVCAR-4 ovarian
SK-MEL-28 melanoma = system: SK-MEL-28 melanoma
ACHN renal = system: ACHN renal
RPMI-8226 leukemia = system: RPMI-8226 leukemia
SN12C renal = system: SN12C renal
IGROV1 ovarian = system: IGROV1 ovarian
UACC-257 melanoma = system: UACC-257 melanoma
SW-620 colon = system: SW-620 colon
SK-MEL-5 melanoma = system: SK-MEL-5 melanoma
OVCAR-5 ovarian = system: OVCAR-5 ovarian
BT-549 breast = system: BT-549 breast
SF-268 CNS = system: SF-268 CNS
HL-60(TB) leukemia = system: HL-60(TB) leukemia
A549 NSCLC = system: A549 NSCLC
HS 578T breast = system: HS 578T breast
SF-539 CNS = system: SF-539 CNS
DU-145 prostate = system: DU-145 prostate
NCI-H23 lung = system: NCI-H23 lung
HT29 colon = system: HT29 colon
MALME-3M melanoma = system: MALME-3M melanoma
SNB-75 CNS = system: SNB-75 CNS
HOP-92 NSCLC = system: HOP-92 NSCLC
T-47D breast = system: T-47D breast
NCI-H226 lung = system: NCI-H226 lung

With `CC(C)CC1C(=O)N2CCC[C@H]2C2(O)O[C@](NC(=O)C3C=C4c5cccc6[nH]c(Br)c(c56)C[C@H]4N(C)C3)(C(C)C)C(=O)N12` (stereo not given in full) the TGI (SNB-19 CNS) was > 100 µM, the GI50 (A498 renal) was 3.21 µM and the TGI (A498 renal) was > 100 µM. The TGI (HOP-62 NSCLC) was > 100 µM, the GI50 (CAKI-1 renal) was 2.81 µM and the TGI (CAKI-1 renal) was > 100 µM. For the same compound, the GI50 (U251 CNS) was 9.4 µM, the TGI (U251 CNS) was > 100 µM and the GI50 (UACC-62 melanoma) was 29.7 µM. The TGI (UACC-62 melanoma) was > 100 µM, the GI50 (MOLT-4 leukemia) was 5.06 µM and the TGI (MOLT-4 leukemia) was > 100 µM. For the same compound, the GI50 (TK-10 renal) was 5.06 µM, the TGI (TK-10 renal) was > 100 µM and the GI50 (SK-MEL-2 melanoma) was 22.6 µM. The TGI (SK-MEL-2 melanoma) was > 100 µM, the GI50 (EKVX NSCLC) was 3.7 µM and the TGI (EKVX NSCLC) was > 100 µM. For the same compound, the GI50 (PC-3 prostate) was 3 µM, the TGI (PC-3 prostate) was > 100 µM and the GI50 (NCI/ADR-RES ovarian) was 8.29 µM. The TGI (NCI/ADR-RES ovarian) was > 100 µM, the GI50 (SK-OV-3 ovarian) was 9.66 µM and the TGI (SK-OV-3 ovarian) was > 100 µM. The GI50 (786-0 renal) was 25.7 µM, the TGI (786-0 renal) was > 100 µM and the TGI (COLO 205 colon) was > 100 µM. The GI50 (OVCAR-3 ovarian) was 6.7 µM, the TGI (OVCAR-3 ovarian) was > 100 µM and the GI50 (SR leukemia) was 33.7 µM. The TGI (SR leukemia) was > 100 µM, the GI50 (HCT-15 colon) was 7.05 µM and the TGI (HCT-15 colon) was > 100 µM. For the same compound, the GI50 (KM12 colon) was 6.23 µM, the TGI (KM12 colon) was > 100 µM and the GI50 (RXF 393 renal) was 4.87 µM. The TGI (RXF 393 renal) was > 100 µM, the TGI (OVCAR-8 ovarian) was > 100 µM and the TGI (MDA-MB-231 breast) was > 100 µM. The GI50 (K-562 leukemia) was 6.17 µM, the TGI (K-562 leukemia) was > 100 µM and the GI50 (CCRF-CEM leukemia) was 8.53 µM. For the same compound, the TGI (CCRF-CEM leukemia) was > 100 µM, the GI50 (M14 melanoma) was > 100 µM and the TGI (M14 melanoma) was > 100 µM. The GI50 (MDA-MB-435) was 16.7 µM, the TGI (MDA-MB-435) was > 100 µM and the GI50 (SF-295 CNS) was 5.3 µM. For the same compound, the TGI (SF-295 CNS) was > 100 µM, the GI50 (MCF7 breast) was 4.92 µM and the TGI (MCF7 breast) was > 100 µM. For the same compound, the TGI (HCT-116 colon) was > 100 µM, the GI50 (LOX IMVI melanoma) was 21.6 µM and the TGI (LOX IMVI melanoma) was > 100 µM. The GI50 (UO-31 renal) was 2.02 µM, the TGI (UO-31 renal) was > 100 µM and the GI50 (NCI-H460 lung) was 6.6 µM. For the same compound, the TGI (NCI-H460 lung) was > 100 µM, the GI50 (OVCAR-4 ovarian) was 5.78 µM and the TGI (OVCAR-4 ovarian) was > 100 µM. For the same compound, the TGI (SK-MEL-28 melanoma) was > 100 µM, the GI50 (ACHN renal) was 8.9 µM and the TGI (ACHN renal) was > 100 µM. For the same compound, the TGI (RPMI-8226 leukemia) was > 100 µM, the GI50 (SN12C renal) was 10.2 µM and the TGI (SN12C renal) was > 100 µM. The GI50 (IGROV1 ovarian) was 6.79 µM, the TGI (IGROV1 ovarian) was > 100 µM and the GI50 (UACC-257 melanoma) was 16.7 µM. The TGI (UACC-257 melanoma) was > 100 µM, the GI50 (SW-620 colon) was 9.23 µM and the TGI (SW-620 colon) was > 100 µM. The GI50 (SK-MEL-5 melanoma) was 4.57 µM, the TGI (SK-MEL-5 melanoma) was > 100 µM and the TGI (OVCAR-5 ovarian) was > 100 µM. The GI50 (BT-549 breast) was 11.7 µM, the TGI (BT-549 breast) was > 100 µM and the GI50 (SF-268 CNS) was 9.02 µM. For the same compound, the TGI (SF-268 CNS) was > 100 µM, the GI50 (HL-60(TB) leukemia) was 3.8 µM and the TGI (HL-60(TB) leukemia) was 29.3 µM. For the same compound, the GI50 (A549 NSCLC) was 4.72 µM, the TGI (A549 NSCLC) was > 100 µM and the GI50 (HS 578T breast) was 68.9 µM. For the same compound, the TGI (HS 578T breast) was > 100 µM, the TGI (SF-539 CNS) was > 100 µM and the TGI (DU-145 prostate) was > 100 µM. For the same compound, the GI50 (NCI-H23 lung) was 8.22 µM, the TGI (NCI-H23 lung) was > 100 µM and the TGI (HT29 colon) was > 100 µM. The GI50 (MALME-3M melanoma) was > 100 µM, the TGI (MALME-3M melanoma) was > 100 µM and the GI50 (SNB-75 CNS) was 5.55 µM. For the same compound, the TGI (SNB-75 CNS) was > 100 µM, the GI50 (HOP-92 NSCLC) was 1.91 µM and the TGI (HOP-92 NSCLC) was > 100 µM. For the same compound, the GI50 (T-47D breast) was 2.9 µM, the TGI (T-47D breast) was > 100 µM and the GI50 (NCI-H226 lung) was 11.3 µM. The TGI (NCI-H226 lung) was > 100 µM.
